Results on 16 compounds are retold here after patent US12384770B2, “Heterocyclic compound” (Takeda Pharmaceutical Company Limited, priority 2019, dated 2025).

“Also recorded” adds a separate entry of the source.

The target of the first experiment is T1, HDAC6 enzyme (Homo sapiens, UniProt Q9UBN7).
T1 construct: HDAC6 enzyme prepared by transducing full length HDAC6 gene into Sf-9 insect cells; GST; purchased SignalChem; host or cells: Sf-9 insect cells
T1 sequence (Q9UBN7 1-1215): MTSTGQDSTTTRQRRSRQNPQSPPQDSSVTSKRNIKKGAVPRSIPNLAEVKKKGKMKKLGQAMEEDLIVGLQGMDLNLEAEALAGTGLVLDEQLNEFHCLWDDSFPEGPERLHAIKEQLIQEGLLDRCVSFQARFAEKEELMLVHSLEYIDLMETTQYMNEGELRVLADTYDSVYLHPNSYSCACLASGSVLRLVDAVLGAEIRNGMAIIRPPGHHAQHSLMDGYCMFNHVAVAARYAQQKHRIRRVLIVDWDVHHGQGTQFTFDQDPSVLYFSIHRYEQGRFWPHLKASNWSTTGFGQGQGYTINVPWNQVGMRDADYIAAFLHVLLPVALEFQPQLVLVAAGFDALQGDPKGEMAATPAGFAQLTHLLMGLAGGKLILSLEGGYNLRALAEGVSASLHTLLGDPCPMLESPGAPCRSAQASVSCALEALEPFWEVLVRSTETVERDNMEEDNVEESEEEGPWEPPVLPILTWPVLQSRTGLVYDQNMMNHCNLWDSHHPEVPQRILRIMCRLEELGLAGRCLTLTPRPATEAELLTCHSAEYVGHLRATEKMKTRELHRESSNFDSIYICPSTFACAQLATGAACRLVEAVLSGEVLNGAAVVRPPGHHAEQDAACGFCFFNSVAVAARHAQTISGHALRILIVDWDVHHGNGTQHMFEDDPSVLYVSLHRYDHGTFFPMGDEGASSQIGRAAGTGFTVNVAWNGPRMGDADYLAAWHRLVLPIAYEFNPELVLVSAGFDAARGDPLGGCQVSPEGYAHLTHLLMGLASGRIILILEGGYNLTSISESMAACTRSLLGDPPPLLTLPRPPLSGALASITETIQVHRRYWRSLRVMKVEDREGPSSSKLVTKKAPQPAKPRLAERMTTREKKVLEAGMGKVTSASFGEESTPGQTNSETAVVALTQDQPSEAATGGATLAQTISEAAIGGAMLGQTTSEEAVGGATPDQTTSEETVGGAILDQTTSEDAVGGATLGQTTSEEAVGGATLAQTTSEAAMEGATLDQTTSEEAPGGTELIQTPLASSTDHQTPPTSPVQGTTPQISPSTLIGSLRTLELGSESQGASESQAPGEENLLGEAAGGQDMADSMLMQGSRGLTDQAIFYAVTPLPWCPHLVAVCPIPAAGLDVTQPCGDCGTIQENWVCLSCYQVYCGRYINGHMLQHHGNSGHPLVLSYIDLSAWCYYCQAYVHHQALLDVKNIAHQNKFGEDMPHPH
In words: HDAC6 enzyme inhibitory assay (HDAC-Glo I/II Assay kit). The experiment is classed as biochemical. The following applies: wells without enzyme = 100% inhibition. In a few lines: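 Full-length GST-purified HDAC6 from Sf-9 cells preincubated with compound 60 min at room temperature in Tris-HCl pH 7.5 buffer with MgCl2, KCl, NaCl, glutathione, Tween-20. Substrate-developer reaction 20 min, luminescence read; no-enzyme wells set as 100% inhibition.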
`O=C1c2cc(-c3nnc(C(F)F)o3)ccc2CN1[C@H](c1ccc(F)c(F)c1)[C@@H](O)c1ccccn1` (single isomer, unassigned) [Example 51, 6-[5-(difluoromethyl)-1,3,4-oxadiazol-2-yl]-2-[(1R*,2R*)-1-(3,4-difluorophenyl)-2-hydroxy-2-(pyridin-2-yl)ethyl]-2,3-dihydro-1H-isoindol-1-one]: the “HDAC6 inhibitory rate (%) (10 μM)” value came out at 99%.

The experiment is the same for the next values; noted with them: wells without enzyme = 100% inhibition, 10 µM.
With `O=C1c2cc(-c3nnc(C(F)F)o3)ccc2CN1[C@H](c1ccc(F)cn1)[C@@H](O)c1ccc(F)cn1` [Example 5, 2-[(1R,2R)-1,2-bis(5-fluoropyridin-2-yl)-2-hydroxyethyl]-6-[5-(difluoromethyl)-1,3,4-oxadiazol-2-yl]-2,3-dihydro-1H-isoindol-1-one], the “HDAC6 inhibitory rate (%) (10 μM)” value is reported as 99%.
For `O=C1c2cc(-c3nnc(C(F)F)o3)ccc2CN1[C@H](C1CCOCC1)[C@@H](O)c1ccc(Cl)cc1` (single isomer, unassigned) [Example 84, 2-[(1R*,2S*)-2-(4-chlorophenyl)-2-hydroxy-1-(oxan-4-yl)ethyl]-6-[5-(difluoromethyl)-1,3,4-oxadiazol-2-yl]-2,3-dihydro-1H-isoindol-1-one], the “HDAC6 inhibitory rate (%) (10 μM)” value is 100%.
Turning to `O=C1c2cc(-c3nnc(C(F)F)o3)ccc2CN1[C@H](c1ccccn1)[C@@H](O)c1ccc(F)cc1` (single isomer, unassigned) [Example 37, 6-[5-(difluoromethyl)-1,3,4-oxadiazol-2-yl]-2-[(1R*,2S*)-2-(4-fluorophenyl)-2-hydroxy-1-(pyridin-2-yl)ethyl]-2,3-dihydro-1H-isoindol-1-one], the “HDAC6 inhibitory rate (%) (10 μM)” value worked out at 100%.
On the same count and under the same terms, the same measure for `O=C1c2cc(-c3nnc(C(F)F)o3)ccc2CN1[C@H](C1CC1)[C@@H](O)c1cccc(Cl)n1` (single isomer, unassigned) [Example 130, 2-[(1R*,2R*)-2-(6-chloropyridin-2-yl)-1-cyclopropyl-2-hydroxyethyl]-6-[5-(difluoromethyl)-1,3,4-oxadiazol-2-yl]-2,3-dihydro-1H-isoindol-1-one]: 98%.

Still in this experiment, the particulars now being: wells without enzyme = 100% inhibition, read-out: HDAC6 inhibitory rate (%) (10 μM).
Consider `O=C1c2cc(-c3nnc(C(F)F)o3)ccc2CN1[C@H](C1CC1)[C@H](O)c1ccc(F)cn1` [Example 150, 2-[(1R,2S)-1-cyclopropyl-2-(5-fluoropyridin-2-yl)-2-hydroxyethyl]-6-[5-(difluoromethyl)-1,3,4-oxadiazol-2-yl]-2,3-dihydro-1H-isoindol-1-one], for which the inhibition at 10 µM was determined as 99%.
On the same count and under the same terms, next, `O=C1c2cc(-c3nnc(C(F)F)o3)ccc2CN1[C@H](c1ccccc1)[C@H](O)c1ccccc1F` (racemic) [Example 139, 6-[5-(difluoromethyl)-1,3,4-oxadiazol-2-yl]-2-[(1RS,2RS)-2-(2-fluorophenyl)-2-hydroxy-1-phenylethyl]-2,3-dihydro-1H-isoindol-1-one]: 100%.
Same read-out and setting: next, `O=C1c2cc(-c3nnc(C(F)F)o3)ccc2CN1[C@H](C1CC1)[C@@H](O)c1cccc(F)c1` [Example 10, 2-[(1R,2S)-1-cyclopropyl-2-(3-fluorophenyl)-2-hydroxyethyl]-6-[5-(difluoromethyl)-1,3,4-oxadiazol-2-yl]-2,3-dihydro-1H-isoindol-1-one]: 100%; `O=C1c2cc(-c3nnc(C(F)F)o3)ccc2CN1[C@H](C1CC1)[C@@H](O)c1ccc(F)nc1` [Example 63, 2-[(1R,2S)-1-cyclopropyl-2-(6-fluoropyridin-3-yl)-2-hydroxyethyl]-6-[5-(difluoromethyl)-1,3,4-oxadiazol-2-yl]-2,3-dihydro-1H-isoindol-1-one]: 100%.
On the same count and under the same terms, next, `O=C1c2cc(-c3nnc(C(F)F)o3)ccc2CN1[C@H](c1cnccn1)[C@@H](O)c1cccc(F)c1` (single isomer, unassigned) [Example 100, 6-[5-(difluoromethyl)-1,3,4-oxadiazol-2-yl]-2-[(1R*,2S*)-2-(3-fluorophenyl)-2-hydroxy-1-(pyrazin-2-yl)ethyl]-2,3-dihydro-1H-isoindol-1-one]: 100%.
On to `Cn1cc([C@H]([C@@H](O)c2ccccc2)N2Cc3ccc(-c4nnc(C(F)F)o4)cc3C2=O)cn1` (racemic) [Example 42, 6-[5-(difluoromethyl)-1,3,4-oxadiazol-2-yl]-2-[(1RS,2SR)-2-hydroxy-1-(1-methyl-1H-pyrazol-4-yl)-2-phenylethyl]-2,3-dihydro-1H-isoindol-1-one], for which the inhibition at 10 µM stood at 100%.
As for `O=C1c2cc(-c3nnc(C(F)F)o3)ccc2CN1[C@H](c1cccc(F)n1)[C@@H](O)c1cccc(F)n1` (single isomer, unassigned) [Example 117, 2-[(1R*,2R*)-1,2-bis(6-fluoropyridin-2-yl)-2-hydroxyethyl]-6-[5-(difluoromethyl)-1,3,4-oxadiazol-2-yl]-2,3-dihydro-1H-isoindol-1-one], the inhibition at 10 µM stood at 101%.
On the same count and under the same terms, the same measure for `O=C1c2cc(-c3nnc(C(F)F)o3)ccc2CN1[C@H](c1ccccn1)[C@H](O)c1ccccc1` (racemic) [Example 143, 6-[5-(difluoromethyl)-1,3,4-oxadiazol-2-yl]-2-[(1RS,2RS)-2-hydroxy-2-phenyl-1-(pyridin-2-yl)ethyl]-2,3-dihydro-1H-isoindol-1-one]: 100%; for `O=C1c2cc(-c3nnc(C(F)F)o3)ccc2CN1[C@H](c1ccc(F)cc1F)[C@@H](O)c1ccc(F)cc1` (single isomer, unassigned) [Example 32, 6-[5-(difluoromethyl)-1,3,4-oxadiazol-2-yl]-2-[(1R*,2S*)-1-(2,4-difluorophenyl)-2-(4-fluorophenyl)-2-hydroxyethyl]-2,3-dihydro-1H-isoindol-1-one]: 99%; for `O=C1c2cc(-c3nnc(C(F)F)o3)ccc2CN1[C@H](C1CC1)[C@@H](O)c1cccc(Cl)n1` (single isomer, unassigned) [Example 129, 2-[(1R*,2R*)-2-(6-chloropyridin-2-yl)-1-cyclopropyl-2-hydroxyethyl]-6-[5-(difluoromethyl)-1,3,4-oxadiazol-2-yl]-2,3-dihydro-1H-isoindol-1-one]: 100%.
Still for that read-out and setting: the same measure for `O=C1c2cc(-c3nnc(C(F)F)o3)ccc2CN1[C@@H](c1ccc(F)cc1F)[C@@H](O)c1ccc(F)cc1` (racemic) [Example 146, 6-[5-(difluoromethyl)-1,3,4-oxadiazol-2-yl]-2-[(1SR,2SR)-1-(2,4-difluoro-phenyl)-2-(4-fluorophenyl)-2-hydroxy-ethyl]-2,3-dihydro-1H-isoindol-1-one]: 95%.

For a further experiment, the system named is acetylated tubulin in mouse brain. Description: Increase in acetylated tubulin in brain (hippocampus, ELISA). Format: in vivo. The following applies: male C57BL/6J mouse, oral, 4 h after administration. From the text: A drug was suspended in 0.5% methyl cellulose to prepare a suspension for administration, having a concentration shown in Table 3. The suspension was orally administered into 8 to 10-week old male C57BL/6J mouse, and after the passage of the time shown in Table 3, the brain was taken out, and hippocampus was obtained. The hippocampus was homogenized under RIPA extract (FUJIFILM Wako Pure Chemical Corporation) to which protease inhibitor (Thermo Fisher Scientific) and phosphatase inhibitor (Thermo Fisher Scientific) were added, and centrifuged in 15,000 g for 15 min to prepare a protein extract. The acetylated tubulin and total tubulin in the extract were detected by the following ELISA method. Tubulin antibody (Sigma) was immobilized on 96-well plate (Microlite2+, Thermo Fisher Scientific), and the plate was stored at 4° C. Next day, the plate was washed four times with PBS-T, and blocking buffer (1% BSA/PBS-T) was added thereto, and the reaction was carried out at 37° C. for 2 hr. The plate was washed four times with PBS-T, and the above-mentioned protein extract was added thereto to capture the tubulin on the antibody. The plate was stored at 37° C. for 2 hr, and washed four times with PBS-T. Anti-acetylated tubulin antibody or total tubulin antibody (Cell Signaling Technology), each diluted with blocking buffer, was added thereto, and the reaction was carried out at 37° C. for 1 hr. […] The plate was washed, HRP substrate was added thereto, and the luminescence was measured using a plate reader. The acetylated tubulin and total tubulin were quantified from logistics curve based on dilution series using the mouse hippocampus tissue extract, and the amount of the acetylated tubulin relative to the total tubulin was calculated, and evaluated as an relative tubulin acetylation level. […] After F test for vehicle group and drug group, the significant difference between the two groups was analyzed by Student t-test or Welch test (indicated as *p<0.05, **p<0.01, n.s.: not significant). […]
(In general: An ELISA detects its analyte on a solid surface through an enzyme-linked reagent.)
For the compound `O=C1c2cc(-c3nnc(C(F)F)o3)ccc2CN1[C@H](c1ccc(F)cn1)[C@@H](O)c1ccc(F)cn1` [Example 5, 2-[(1R,2R)-1,2-bis(5-fluoropyridin-2-yl)-2-hydroxyethyl]-6-[5-(difluoromethyl)-1,3,4-oxadiazol-2-yl]-2,3-dihydro-1H-isoindol-1-one], the “relative tubulin acetylation level (acetylated tubulin relative to total tubulin)” value was “increase in significant tubulin acetylation level; also recorded: increase in acetylated tubulin”.
